Assay results taken from patent publication US6087364A, “Dopamine D4 receptor antagonists” (Warner-Lambert Company, priority 1998, dated 2000).
Where two headings read alike, the source gives them in different places.

What was measured:
[1] = molecular target: T1, human recombinant dopamine D4.2 receptor (Homo sapiens, UniProt P21917, DEL265-296); assay: D4.2 dopamine receptor binding assay ([3H]spiperone, membranes of CHO K1 cells); conditions: human D4.2 receptor, 0.2 nM [3H]spiperone, 60 min, 25° C., apparent Ki from IC50 (Cheng and Prusoff)
T1 construct: expressed in transfected cells
T1 sequence (P21917 with tags, fused parts or gaps DEL265-296): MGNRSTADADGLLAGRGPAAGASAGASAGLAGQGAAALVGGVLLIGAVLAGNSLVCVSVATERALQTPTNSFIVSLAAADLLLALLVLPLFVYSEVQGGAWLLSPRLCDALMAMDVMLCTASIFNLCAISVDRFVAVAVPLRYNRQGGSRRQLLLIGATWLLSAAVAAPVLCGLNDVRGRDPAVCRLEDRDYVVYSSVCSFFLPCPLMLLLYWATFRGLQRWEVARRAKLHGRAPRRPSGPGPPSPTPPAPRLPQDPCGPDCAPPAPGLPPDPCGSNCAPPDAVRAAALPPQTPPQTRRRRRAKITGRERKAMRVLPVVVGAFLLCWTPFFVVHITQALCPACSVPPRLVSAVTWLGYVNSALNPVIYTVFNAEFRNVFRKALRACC
Text: (§1) A cell line expressing human dopamine D2 (Long form) receptors was purchased from Oregon Health Sciences University, Portland, Oreg. The D2 receptor cDNA was subcloned into an expression vector, pRc/CMV. The plasmids were transfected by electroporation into CHO K1 cells. A single stable transfectant, resistant to the antibiotic G418, was isolated and selected for use in the binding studies. For D4 binding, CHO K1 cells stably transfected to express the human recombinant dopamine D4.2 receptor subtype, as described by Shih, et al., "The Expression and Functional Characterization of Human Dopamine D4.2 Receptor in CHO K1 Cells," Soc. Neurosci., 21(Part 1): 621 (1995).
(§2) CHO K1 cells expressing either human D2 and D4.2 receptors were grown in 162 cm^2 culture flasks in F12 medium (Gibco Laboratories, Grand Island, N.Y.) supplemented with 10% fetal bovine serum (FBS, Hyclone, Logan, Utah) in an atmosphere of 5% CO2 /95% air at 37° C. Cells were grown until confluent, after which growth medium was removed and replaced with 0.02% ethylene diamine tetracetate (EDTA) in a phosphate-buffered saline solution (Sigma Chemical Co., St. Louis, Mo.) and scraped from the flasks. The cells were centrifuged at about 1000× g for 10 minutes at […] and then resuspended in TEM buffer (25 mM Tris-HCl, pH 7.4, 5 mM EDTA, and 6 mM MgCl2) for D2 or the D4.2 buffer (50 mM Tris-HCl, pH 7.4, 5 mM EDTA, 1.5 mM CaCl2, 5 mM KC1, and 120 mM NaCl) and homogenized. The membranes were pelleted by centrifugation at 20,000× g at […] for 20 minutes. Then the pellets were resuspended in appropriate buffer at 1 mL/flask and stored at -70° C. until used in the receptor binding assay.
(§3) After 60 minutes incubation at 25° C., the incubations were terminated by rapid filtration through Whatmann GF/B glass fibre filters (soaked for 1 hour in 0.5% polyethylenimine) on a cell harvester, with three washes of 1 mL ice-cold buffer. Individual filter disks containing the bound ligand were placed in counting vials with 4 mL of scintillation fluid (Ready Gel, Beckman Instrument Inc., Fullerton, Calif.) and then counted in a Beckman LS-6800 liquid scintillation counter at an efficiency of 45%. Nonspecific binding was defined in presence of 1 mM of haloperidol.
(§4) Saturation and competition binding data were analyzed using an iterative nonlinear least-square curve-fitting Ligand program. […] Experimental compounds were made up as stock solutions in dimethyl sulfoxide (DMSO). […] Each observation was carried out in triplicate. To allow these calculations, Kd values were measured for the interaction of various ligands with the receptor.

[2] = tested on: amphetamine-stimulated locomotion; assay: Blockade of Amphetamine-Stimulated Locomotion (BASL) in Rats; assay type: in vivo, Male Sprague-Dawley rats; conditions: Rattus norvegicus, 0.5 h, read-out: BASL ED50, mg/kg PO (dose which would reverse amphetamine-stimulated locomotion by 50%), drug 30 minutes prior to test, amphetamine 0.5 mg/kg IP 15 minutes prior to test, 30 minute test
Text: Blockade of Amphetamine-Stimulated Locomotion (BASL) in Rats
Hyperactivity of brain dopamine (DA) neuronal systems is believed to contribute to the symptomology of schizophrenia. This hypothesis is supported, in part, by the ability of drugs such as the indirect DA agonist, amphetamine, to exacerbate schizophrenia. The stimulatory effect of amphetamine can be blocked by one of two mechanisms: a postsynaptic blockade of DA receptors, or by the action of DA autoreceptor agonists at inhibitory presynaptic DA receptor sites. Currently available antipsychotic drugs are DA receptor antagonists; however, these compounds can also cause extrapyramidal side effects apparently due to complete postsynaptic receptor blockade. Antipsychotic agents produce sedation (manifested as decreased locomotion) in normal animals, as well as in animals treated with psychomotor stimulants by reducing the access of endogenous DA to postsynaptic receptors in the brain.
Male Sprague-Dawley rats (Harlan Labs) were used for these studies. Drugs were dissolved in saline or water and administered either orally (PO) or intraperitoneally (IP) in volumes of 5 mL/kg. Saline control rats and amphetamine (0.5 mg/kg IP) control rats are included with each study (n=4-6 rats per treatment group). for the IP studies, amphetamine is given 20 minutes prior to the drug, after which a 30 minute locomotor activity test is conducted. For the oral study, drug is dosed 30 minutes prior to test, while amphetamine is given 15 minutes prior to test, which allows time for oral absorption. Locomotor activity (centimeters travelled per 30 minute test) is measured in 16"×16" open chambers. Amphetamine generally produces a 2- to 3-fold increase in locomotion over saline controls. Drug effects are reported as percent reversal of amphetamine-stimulated locomotion. Significant changes in amphetamine-stimulated locomotion, relative to amphetamine-treated controls, were determined by t-test.

[3] = molecular target: human dopamine D2 (Long form) receptor (Homo sapiens, UniProt P14416); assay: D2 dopamine receptor binding assay ([3H]spiperone, membranes of CHO K1 cells)
Text: as §1, §2, §3, §4

human dopamine D2 (Long form) receptor, sequence (P14416 whole entry): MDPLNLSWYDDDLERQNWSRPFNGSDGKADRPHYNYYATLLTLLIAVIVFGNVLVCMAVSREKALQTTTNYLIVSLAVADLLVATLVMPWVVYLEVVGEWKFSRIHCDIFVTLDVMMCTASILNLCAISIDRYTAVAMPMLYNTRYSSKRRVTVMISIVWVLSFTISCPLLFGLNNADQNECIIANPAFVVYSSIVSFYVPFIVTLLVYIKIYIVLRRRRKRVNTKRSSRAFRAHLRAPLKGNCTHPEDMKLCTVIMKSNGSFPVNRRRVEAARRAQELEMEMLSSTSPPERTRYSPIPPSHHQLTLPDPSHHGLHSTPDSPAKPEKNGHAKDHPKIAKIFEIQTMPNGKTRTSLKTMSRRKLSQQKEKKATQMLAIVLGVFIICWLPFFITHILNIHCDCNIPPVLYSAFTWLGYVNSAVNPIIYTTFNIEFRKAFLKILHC

Ki [1] [nM]	Ki [3] [µM]	Ki ([3]; human D2 receptor, CHO K1 membranes, 0.2 nM [3H]spiperone, 60 min, 25° C., apparent Ki from IC50 (Cheng and Prusoff)) [µM]	SMILES	ED50 [2] [mg/kg]
42			Cc1ccc(N2CCN(CCC3NC(=O)c4ccccc43)CC2)cc1C (single isomer, unassigned; (+)) [(+)-3-{2-[4-(3,4-Dimethyl-phenyl)-piperazin-1-yl]-ethyl}-2,3-dihydro-isoindol-1-one]	
7.8			Cc1ccc(N2CCN(CCC3NC(=O)c4ccccc43)CC2)cc1C (single isomer, unassigned; (-)) [(-)-3-{2-[4-(3,4-Dimethyl-phenyl)-piperazin-1-yl]-ethyl}-2,3-dihydro-isoindol-1-one]	1.5
20.8	> 5.88		Cc1nc(N2CCN(CCC3NC(=O)c4ccccc43)CC2)sc1C (stereo not drawn) [3-[2-(4-(4,5-Dimethyl-thiazol-2-yl)-piperazin-1-yl)-ethyl]-2,3-dihydro-isoindol-1-one]	
99.7	2.15		O=C1NC(CCN2CCC(=C(c3ccccc3)c3ccccc3)CC2)c2ccccc21 (stereo not drawn) [3-[2-(4-(Diphenylmethylene)-piperidin-1-yl)-ethyl]-2,3-dihydro-isoindol-1-one]	
12.4	> 5.88		Cc1ccc(N2CCN(CCC3NC(=O)c4ccccc43)CC2)cc1 (stereo not drawn) [3-[2-(4-P-Tolyl-piperazin-1-yl)-ethyl]-2,3-dihydro-isoindol-1-one]	< 1
24.5			O=C1NC(CCN2CCN(c3ccccc3)CC2)c2ccccc21 (stereo not drawn) [3-[2-(4-Phenyl-piperazin-1-yl)-ethyl]-2,3-dihydro-isoindol-1-one]	
27.8	> 5.88		O=C1NC(CCN2CCN(c3ccc(Cl)cc3)CC2)c2ccccc21 (stereo not drawn) [3-[2-(4-p-Chlorophenyl-piperazin-1-yl)-ethyl]-2,3-dihydro-isoindol-1-one]	
37.3	> 5.88		COc1ccc(N2CCN(CCC3c4ccccc4C(=O)N3C)CC2)cc1 (stereo not drawn) [3-[2-(4-p-Methoxyphenyl-piperazin-1-yl)-ethyl]-2,3-dihydro-2-methyl-isoindol-1-one]	
8.77			Cc1ccc(N2CCN(CCC3NC(=O)c4ccccc43)CC2)cc1C (stereo not drawn) [3-{2-[4-(3,4-Dimethyl-phenyl)-piperazin-1-yl]-ethyl}-2,3-dihydro-isoindol-1-one]	3
9.27		1.21	Cc1ccc(C2CCN(CCC3NC(=O)c4ccccc43)CC2)cc1C (stereo not drawn) [3-{2-[4-(3,4-Dimethyl-phenyl)-piperidin-1-yl]-ethyl}-2,3-dihydro-isoindol-1-one]	
22.6	> 5.88		Cc1ccc(N2CCN(CCC3NC(=O)c4ccccc43)CC2)nc1 (stereo not drawn) [3-{2-[4-(5-Methyl-pyridin-2-yl)-piperazin-1-yl]-ethyl}-2,3-dihydro-isoindol-1-one]	
